# Test results as given in ChEMBL document CHEMBL5236587, “Discovery of oxazoline enhancers of cellular progranulin release” (Bioorg Med Chem Lett, 2023).
# Experiments:
# [1] = Induction of progranulin secretion in mouse BV-2 cells; type: functional, cell-based
# [2] = molecular target: Voltage-gated inwardly rectifying potassium channel KCNH2 (Homo sapiens, UniProt Q12809); test: Inhibition of human ERG; type: toxicity
# [3] = Bioavailability in mouse at 10 mg/kg, po or 1 mg/kg, iv; type: ADME, organism-based; conditions: in vivo
# [4] = Efflux ratio of apparent permeability in MDCK-MDR1 cells; type: ADME, cell-based, Canis lupus familiaris; conditions: dog
# [5] = Apparent permeability across apical to basolateral side in MDCK-MDR1 cells; type: ADME, cell-based, Canis lupus familiaris; conditions: dog
# [6] = Metabolic stability in mouse hepatocytes assessed as intrinsic clearance; type: ADME, cell-based, Hepatocyte
# [7] = Metabolic stability in human hepatocytes assessed as intrinsic clearance; type: ADME, cell-based, Hepatocyte
# [8] = Unbound brain to plasma partition coefficient in mouse at 10 mg/kg, po or 1 mg/kg, iv after 8 hrs; type: ADME, organism-based; conditions: read-out: K(p,uu,brain)
# [9] = Metabolic stability in mouse hepatocytes assessed as half life measured upto 120 mins; type: ADME, cell-based, Hepatocyte
# [10] = Protein binding in mouse assessed as unbound fraction; type: ADME
# [11] = Metabolic stability in human hepatocytes assessed as half life measured upto 120 mins; type: ADME, cell-based, Hepatocyte
# [12] = Protein binding in mouse brain assessed as unbound fraction; type: ADME, tissue-based
# [13] = Half life in mouse at 10 mg/kg, po; type: ADME, organism-based; conditions: in vivo
# [14] = Clearance in mouse at 10 mg/kg, po or 1 mg/kg, iv; type: ADME, organism-based; conditions: in vivo
# [15] = Unbound Cmax in mouse at 10 mg/kg, po or 1 mg/kg, iv; type: ADME, organism-based; conditions: in vivo
# [16] = Half life in mouse at 1 mg/kg, iv; type: ADME, organism-based; conditions: in vivo
# [17] = Protein binding in human assessed as unbound fraction; type: ADME
# [18] = Volume of distribution at steady state in mouse at 10 mg/kg, po or 1 mg/kg, iv; type: ADME, organism-based; conditions: in vivo
# Voltage-gated inwardly rectifying potassium channel KCNH2, sequence (Q12809 whole entry): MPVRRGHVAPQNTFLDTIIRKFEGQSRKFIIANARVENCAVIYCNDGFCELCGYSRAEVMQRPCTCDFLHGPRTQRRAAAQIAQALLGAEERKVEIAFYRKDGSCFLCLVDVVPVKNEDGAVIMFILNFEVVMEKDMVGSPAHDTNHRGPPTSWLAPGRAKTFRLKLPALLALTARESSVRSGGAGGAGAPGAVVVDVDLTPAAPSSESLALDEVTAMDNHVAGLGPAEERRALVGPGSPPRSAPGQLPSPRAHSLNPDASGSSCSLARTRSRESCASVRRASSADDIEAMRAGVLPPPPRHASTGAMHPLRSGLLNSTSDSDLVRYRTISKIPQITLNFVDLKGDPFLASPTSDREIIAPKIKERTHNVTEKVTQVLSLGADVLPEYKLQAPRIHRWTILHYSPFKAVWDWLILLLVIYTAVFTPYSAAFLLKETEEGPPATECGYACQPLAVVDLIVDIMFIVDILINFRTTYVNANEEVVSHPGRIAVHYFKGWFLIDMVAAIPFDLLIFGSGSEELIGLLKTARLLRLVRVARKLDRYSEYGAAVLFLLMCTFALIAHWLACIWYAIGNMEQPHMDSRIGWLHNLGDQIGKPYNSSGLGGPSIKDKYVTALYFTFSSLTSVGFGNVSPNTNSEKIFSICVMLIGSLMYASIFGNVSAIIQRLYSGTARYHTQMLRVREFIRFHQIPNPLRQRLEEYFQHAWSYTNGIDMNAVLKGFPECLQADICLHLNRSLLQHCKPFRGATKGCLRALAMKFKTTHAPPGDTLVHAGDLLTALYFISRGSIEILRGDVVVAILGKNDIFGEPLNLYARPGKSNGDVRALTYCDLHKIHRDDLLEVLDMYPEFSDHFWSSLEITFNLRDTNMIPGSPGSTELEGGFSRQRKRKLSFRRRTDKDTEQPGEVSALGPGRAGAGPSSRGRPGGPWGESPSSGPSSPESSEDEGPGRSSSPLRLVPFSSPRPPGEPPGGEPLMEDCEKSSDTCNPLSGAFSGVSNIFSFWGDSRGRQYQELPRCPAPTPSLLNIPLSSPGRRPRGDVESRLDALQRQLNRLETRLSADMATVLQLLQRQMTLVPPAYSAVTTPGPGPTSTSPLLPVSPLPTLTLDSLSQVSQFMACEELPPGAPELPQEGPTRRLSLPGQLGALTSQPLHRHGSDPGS
EC50 [1],SMILES,IC50 [2],also measured
796 nM,CN1CCCC2(COC(N3CCc4ccccc4[C@@H]3c3ccc(F)cc3)=N2)C1 (some centres undefined),,
423 nM,Fc1ccc([C@H]2c3ccccc3CCN2C2=NC[C@H]3NCC[C@H]3O2)cc1,,
335 nM,Fc1ccc([C@H]2c3ccccc3CCN2C2=NC[C@H]3CNCC[C@H]3O2)cc1,,
208 nM,Fc1ccc([C@H]2c3ccccc3CCN2C2=NC[C@H]([C@@H]3CCNC3)O2)cc1,6700 nM,
85 nM,Fc1ccc([C@H]2c3ccccc3CCN2C2=N[C@]3(CCCNC3)CO2)cc1,,
37 nM,OCCN1CC[C@@H]2OC(N3CCc4ccccc4[C@@H]3c3ccc(F)cc3)=NC[C@@H]2C1,,
237 nM,CN(C)[C@H]1CC[C@@]2(CN=C(N3CCc4ccccc4[C@@H]3c3ccc(F)cc3)O2)C1,3600 nM,
55 nM,Fc1ccc([C@H]2c3ccccc3CCN2C2=NC[C@@H]([C@@H]3CCNC3)O2)cc1,5400 nM,
192 nM,Fc1ccc([C@H]2c3ccccc3CCN2C2=NC[C@H](C3(F)CNC3)O2)cc1,11000 nM,
69 nM,CN1CC[C@]2(CN=C(N3CCc4ccccc4[C@@H]3c3ccc(F)cc3)O2)C1,510 nM,
209 nM,CN(C)[C@H]1C[C@@]2(CN=C(N3CCc4ccccc4[C@@H]3c3ccc(F)cc3)O2)C1,7000 nM,
85 nM,Fc1ccc([C@H]2c3ccccc3CCN2C2=NC[C@H]([C@H]3CCNC3)O2)cc1,2300 nM,
59 nM,Fc1ccc([C@H]2c3ccccc3CCN2C2=NCC3(CCNCC3)O2)cc1,,
127 nM,N[C@H]1CC[C@@]2(CN=C(N3CCc4ccccc4[C@@H]3c3ccc(F)cc3)O2)C1,,
97 nM,Fc1ccc([C@H]2c3ccccc3CCN2C2=NC[C@@H](C3CNC3)O2)cc1,6200 nM,
132 nM,Fc1ccc([C@H]2c3ccccc3CCN2C2=NC[C@@H](C3(F)CNC3)O2)cc1,3600 nM,bioavailability [3]: 38%; efflux ratio [4]: 1.07; Papp A→B [5]: 0.87 ×10⁻⁶ cm/s; CLH [6]: < 68.2 µL/min/mg; CLH [7]: < 14.7 µL/min/mg; Kp uu at 8 h [8]: 8.33; half-life [9]: > 2 h; fraction unbound [10]: 0.021; half-life [11]: > 2 h; fraction unbound [12]: 0.01; half-life [13]: 2.6 h; CL [14]: 89.3 mL/min/kg; fCmax [15]: 11 nM; half-life [16]: 2.2 h; fraction unbound [17]: 0.068; Vdss [18]: 12.2 L/kg
204 nM,N[C@H]1CC[C@@]2(COC(N3CCc4ccccc4[C@@H]3c3ccc(F)cc3)=N2)C1,,
517 nM,Fc1ccc([C@H]2c3ccccc3CCN2C2=N[C@H]3CNC[C@H]3O2)cc1,,
21 nM,Fc1ccc([C@H]2c3ccccc3CCN2C2=NC[C@]3(CCNC3)O2)cc1,,
318 nM,OCCN1CC[C@@]2(CN=C(N3CCc4ccccc4[C@@H]3c3ccc(F)cc3)O2)C1,4400 nM,bioavailability [3]: 6.1%; efflux ratio [4]: 1.52; Papp A→B [5]: 2.2 ×10⁻⁶ cm/s; CLH [6]: 22.25 µL/min/mg; CLH [7]: < 14.7 µL/min/mg; Kp uu at 8 h [8]: 3.84; half-life [9]: 0.517 h; fraction unbound [10]: 0.091; half-life [11]: > 2 h; fraction unbound [12]: 0.042; half-life [13]: 3.3 h; CL [14]: 129 mL/min/kg; fCmax [15]: 8 nM; half-life [16]: 2.1 h; fraction unbound [17]: 0.151; Vdss [18]: 18.5 L/kg
111 nM,Fc1ccc([C@H]2c3ccccc3CCN2C2=NC[C@H]3CNC[C@H]3O2)cc1,5100 nM,
119 nM,Fc1ccc([C@H]2c3ccccc3CCN2C2=N[C@@H](C3(F)CNC3)CO2)cc1,10000 nM,
275 nM,Fc1ccc([C@H]2c3ccccc3CCN2C2=N[C@H]3CNC[C@H]3CO2)cc1,3300 nM,
35 nM,Fc1ccc([C@H]2c3ccccc3CCN2C2=NC[C@@H]3CNCC[C@H]3O2)cc1,3100 nM,
230 nM,OCCN1CC[C@H]2OC(N3CCc4ccccc4[C@@H]3c3ccc(F)cc3)=NC[C@H]2C1,,
119 nM,N[C@@H]1CC[C@@]2(CN=C(N3CCc4ccccc4[C@@H]3c3ccc(F)cc3)O2)C1,8800 nM,

EC50 [1],SMILES,IC50 [2],also measured
64 nM,Fc1ccc([C@H]2c3ccccc3CCN2C2=NC[C@]3(CCCNC3)O2)cc1,,
455 nM,Fc1ccc([C@H]2c3ccccc3CCN2C2=NC[C@@H]3NCC[C@@H]3O2)cc1,,
7030 nM,CN1CCC2(CC1)COC(N1CCc3ccccc3[C@@H]1c1ccc(F)cc1)=N2,,
176 nM,CN1CC[C@@]2(CN=C(N3CCc4ccccc4[C@@H]3c3ccc(F)cc3)O2)C1,1700 nM,
206 nM,NC[C@H]1C[C@]2(CN=C(N3CCc4ccccc4[C@@H]3c3ccc(F)cc3)O2)C1,,
1550 nM,Fc1ccc([C@H]2c3ccccc3CCN2C2=NC[C@H]3CNCC[C@@H]3O2)cc1,,
137 nM,CN(C)[C@H]1CC[C@]2(CN=C(N3CCc4ccccc4[C@@H]3c3ccc(F)cc3)O2)C1,7800 nM,
502 nM,Fc1ccc([C@H]2c3ccccc3CCN2C2=NC[C@@]3(CCCNC3)O2)cc1,,
993 nM,NC[C@H]1C[C@@]2(CN=C(N3CCc4ccccc4[C@@H]3c3ccc(F)cc3)O2)C1,,
522 nM,N[C@H]1C[C@@]2(CN=C(N3CCc4ccccc4[C@@H]3c3ccc(F)cc3)O2)C1,,
236 nM,N[C@@H]1CC[C@]2(CN=C(N3CCc4ccccc4[C@@H]3c3ccc(F)cc3)O2)C1,,
57 nM,Fc1ccc([C@H]2c3ccccc3CCN2C2=NC[C@@H]3CNCC[C@@H]3O2)cc1,21000 nM,efflux ratio [4]: 9.04; Papp A→B [5]: 1.4 ×10⁻⁶ cm/s; fraction unbound [10]: 0.253; fraction unbound [12]: 0.009; fraction unbound [17]: 0.375
674 nM,Fc1ccc([C@H]2c3ccccc3CCN2C2=N[C@@H]3CNC[C@@H]3O2)cc1,,
109 nM,Fc1ccc([C@H]2c3ccccc3CCN2C2=NC[C@H](C3CNC3)O2)cc1,2200 nM,
38 nM,Fc1ccc([C@H]2c3ccccc3CCN2C2=N[C@@]3(CCCNC3)CO2)cc1,,
659 nM,Fc1ccc([C@H]2c3ccccc3CCN2C2=NC[C@@H]3NCC[C@H]3O2)cc1,,
110 nM,N[C@H]1CC[C@]2(CN=C(N3CCc4ccccc4[C@@H]3c3ccc(F)cc3)O2)C1,,
157 nM,Fc1ccc([C@H]2c3ccccc3CCN2C2=NC3(CCNCC3)CO2)cc1,,
639 nM,N[C@H]1C[C@@]2(COC(N3CCc4ccccc4[C@@H]3c3ccc(F)cc3)=N2)C1,,
244 nM,Fc1ccc([C@H]2c3ccccc3CCN2C2=NC[C@@H]([C@H]3CCNC3)O2)cc1,3900 nM,
83 nM,Fc1ccc([C@H]2c3ccccc3CCN2C2=N[C@H](C3(F)CNC3)CO2)cc1,3100 nM,bioavailability [3]: 99%; efflux ratio [4]: 1.11; Papp A→B [5]: 0.53 ×10⁻⁶ cm/s; CLH [6]: < 68.2 µL/min/mg; CLH [7]: < 14.7 µL/min/mg; Kp uu at 8 h [8]: 2.91; half-life [9]: > 2 h; fraction unbound [10]: 0.031; half-life [11]: > 2 h; fraction unbound [12]: 0.009; half-life [13]: 4.8 h; CL [14]: 34.7 mL/min/kg; fCmax [15]: 62 nM; half-life [16]: 7.4 h; fraction unbound [17]: 0.055; Vdss [18]: 15.2 L/kg
160 nM,N[C@H]1CC[C@]2(COC(N3CCc4ccccc4[C@@H]3c3ccc(F)cc3)=N2)C1,,
3580 nM,CN(C)[C@H]1C[C@]2(CN=C(N3CCc4ccccc4[C@@H]3c3ccc(F)cc3)O2)C1,,
950 nM,Fc1ccc([C@H]2c3ccccc3CCN2C2=NC[C@@H]3CNC[C@@H]3O2)cc1,,
181 nM,OCCCN1CC[C@@]2(CN=C(N3CCc4ccccc4[C@@H]3c3ccc(F)cc3)O2)C1,4800 nM,
38 nM,Fc1ccc([C@H]2c3ccccc3CCN2C2=NC[C@@]3(CCNC3)O2)cc1,4800 nM,bioavailability [3]: 74%; efflux ratio [4]: 3.09; Papp A→B [5]: 3 ×10⁻⁶ cm/s; CLH [6]: < 68.2 µL/min/mg; CLH [7]: < 14.7 µL/min/mg; half-life [9]: > 2 h; half-life [11]: > 2 h; fraction unbound [12]: 0.041; half-life [13]: 11.9 h; CL [14]: 49.8 mL/min/kg; half-life [16]: 15.6 h; Vdss [18]: 57.2 L/kg

SMILES,EC50 [1],IC50 [2],also measured
Fc1ccc([C@H]2c3ccccc3CCN2C2=NC[C@H](C3CN4CCC3(F)CC4)O2)cc1 (some centres undefined),> 10000 nM,,
Fc1ccc([C@H]2c3ccccc3CCN2C2=NC[C@@H](C3CN4CCC3(F)CC4)O2)cc1 (some centres undefined),382 nM,,
Fc1ccc([C@H]2c3ccccc3CCN2C2=NC[C@@H](C3CN4CCC3CC4)O2)cc1 (some centres undefined),218 nM,690 nM,bioavailability [3]: 25%; efflux ratio [4]: 2.12; Papp A→B [5]: 3.07 ×10⁻⁶ cm/s; CLH [6]: 147.03 µL/min/mg; CLH [7]: 47.79 µL/min/mg; Kp uu at 8 h [8]: 2.7; half-life [9]: 0.0785 h; fraction unbound [10]: 0.056; half-life [11]: 0.242 h; fraction unbound [12]: 0.02; half-life [13]: 11.4 h; CL [14]: 156 mL/min/kg; fCmax [15]: 6 nM; half-life [16]: 4.17 h; fraction unbound [17]: 0.141; Vdss [18]: 38.8 L/kg
Fc1ccc([C@H]2c3ccccc3CCN2C2=N[C@H](C3CN4CCC3CC4)CO2)cc1 (some centres undefined),126 nM,,
Fc1ccc([C@H]2c3ccccc3CCN2C2=NC[C@H](C3CN4CCC3CC4)O2)cc1 (some centres undefined),387 nM,680 nM,
Fc1ccc([C@H]2c3ccccc3CCN2C2=N[C@@H](C3CN4CCC3CC4)CO2)cc1 (some centres undefined),231 nM,,
